Assay results taken from patent US10709790B2, “Chemical conjugates of Evans Blue derivatives and their use in the production of long-acting therapeutics” (THE UNITED STATES OF AMERICA, AS REPRESENTED BY THE …, priority 2015, dated 2020).

What was measured:
blood glucose = experiment: Plasma glucose levels in Type 2 diabetic cynomolgus monkeys; assay type: in vivo; conditions: one-time s.c. injection; Abextide II 165 ug/kg, albiglutide 0.9 mg/kg; compared to placebo
Method: (§1) The efficacy and pharmacokinetics of MEB-C3-Cys40-Extendin 4 (Abextide II) was studied in primates. Nine Type 2 diabetic cynomolgus monkeys were separated into 3 groups and each group was injected with one of albiglutide (positive control, 0.9 mg/kg), Abextide II (165 μg/kg), or a saline placebo, as a one-time subcutaneous injection. The structure of Abextide II is shown below.
(§2) Plasma glucose levels and body weight were measured, and an intravenous glucose tolerance test (IVGTT) was also performed to assess the efficacy and pharmacokinetics of the compounds.

plasma glucose = experiment: Intravenous glucose tolerance test (IVGTT) in Type 2 diabetic cynomolgus monkeys; assay type: in vivo; conditions: plasma glucose at 0, 5, 15 and 30 min; 2 hours after treatment vs one week before
Method: as §1, §2
Intravenous glucose tolerance test was performed on all animals one week before (baseline) and 2 hours after treatment. […] The areas under curve (AUCs) of the plasma glucose level at 0, 5, 15 and 30 min were calculated to quantify IVGTT.

## Albiglutide
Blood glucose
  reduction of blood glucose level: unable to reduce blood glucose level
Plasma glucose
  IVGTT area under curve (AUC) of plasma glucose level versus baseline before treatment: significant differences were not observed
